The source of these data is patent publication US20080200405A1, “Drug Resistance Reversal In Neoplastic Disease” (priority 2007, published 2008).

In experiment [1] the test system is Human whole blood clot formation. The conditions noted are these: for Clot Strength - MA / Time to Clot Initiation R: TEG, human whole blood. The procedure: TEG: Human whole blood (±drugs) was added to the cylindrical cuvette (“cup”). […] The cup oscillates 4°45′ ( 1/12 radian) in either direction every 4.5 seconds, with a 1-second mid-cycle stationary period, resulting in a frequency of 0.1 Hz and a maximal shear rate of 0.1 per second. The pin was suspended by a torsion wire that acts as a torque transducer. […] The torque experienced by the pin (relative to the oscillation of the cup) was plotted as a function of time (Forsythe, S. A. M. S. K. M. S. (2000): “Comparative In Vitro Efficacy of Different Platelet Glycoprotein IIb/IIIa Antagonists on Platelet-Mediated Clot Strength Induced by Tissue Factor With Use of Thromboelastography.” Arteriosclerosis, Thrombosis, and Vascular Biology 20: 1162).
(Data represent mean ±SD, n=6 (blood form normal healthy volunteers), *P<0.01 as compared to control)

For experiment [2], the system named is doxorubicin-sensitive and doxorubicin-resistant cells (osteosarcoma, breast cancer, neuroblastoma). The experiment in a line: Evaluation of chemoresistance, Compound 4 alone or combined with doxorubicin. It counts as cell-based, human. As to the method: A method for evaluating a compound's propensity to overcome cancer cell chemoresistance is described in “Caspase Inhibition Switches Doxorubicin-Induced Apoptosis To Senescence”, Abdelhadi Rebbaa, Xin Zheng, Pauline M Chou and Bernard L Mirkin, Oncogene (2003) 22, 2805-2811. Human neuroblastoma SKN-SH cells (ATCC Cat. No. HTB-11) were cultured in Dulbecco's Modified Eagles Medium (DMEM; Gibco, Grand Island, N.Y.) supplemented with 10% fetal bovine serum (FBS; Sigma-Aldrich, St. Louis, Mo.) at 37° C. in a 95% Air/5% CO2 atmosphere. Resistant human cancer cells to doxorubicin were selected by stepwise exposure to drug concentrations ranging from 10^−9M-10^−6M over 3 months. They were then subjected to treatment with the doxorubicin alone or in combination with hydroxylamine compounds. The cells were incubated with the drugs for 72 hours, and cell viability was measured by the MTT assay. This consists of adding 10 μl/well of MTT (5 mg/ml solution) and incubation for 4 h at 37° C. The precipitate formed is then solubilized by addition of 100 μl of HCL 0.5 N/Isopropanol and incubation for 15 hours at 37° C. The optical density is measured at 570 nm and cell survival is estimated by comparison to untreated cells. Each point represents 4 wells data represent average +/−SE. Additionally, molecular pathways that might be associated with increased chemo-responsiveness with these compounds were investigated.
Cytotoxic activity of doxorubicin and hydroxylamine analogs were quantitatively determined by a colorimetric assay utilizing 3-(4,5-dimethyl-2-thiazolyl) 2,5-diphenyl tetrazolium bromide (MTT; Sigma-Aldrich, St. Louis, Mo.). Briefly, cells were seeded at 10^4 cells/well in 96-well plates and maintained in culture for 24 hours at 37° C. in DMEM supplemented with 10% FBS. […] The optical density of this solution was measured at 570 nm and the percentage of viable cells estimated by comparison with untreated control cells.

The test system of another experiment is TNFα. Kind of experiment: Measurement of LPS Induced-TNFα in THP-1 Cells. It counts as cell-based, human. Conditions: Homo sapiens, THP-1.
Experiment [3] has as its system Doxorubicin resistant SaOS2 cells. Kind of experiment: Cancer cell viability (MTT) in the presence or absence of doxorubicin. The experiment is classed as cell-based, human. Conditions: compound 50 ug/mL, 3 days.
A further experiment concerns Lipid peroxidation. Kind of experiment: Lipid peroxidation inhibition (method of Ohkawa). It counts as biochemical.
The test system of experiment [4] is bFGF-induced angiogenesis in the CAM model. Kind of experiment: bFGF (FGF2)-stimulated CAM model. The conditions noted are these: bFGF/FGF2 1 ug, 30 ug injected. The experiment is classed as in vivo, chicken. As to the method: (§1) In vivo neovascularization was examined by the method previously described by Auerbach et al. (J. Dev. Biol. 41:391-394 (1974)). Ten-day old chicken embryos were purchased from Spafas, Inc. (Preston, Conn.) and were incubated at 37° C. with 55% relative humidity. In the dark, with the aid of a candling lamp, a small hole was punctured in the shell concealing the air sac with a hypodermic needle. A second hole was punctured in the shell on the broadside of the egg directly over an […] portion of the embryonic membrane, as observed during candling. An artificial air sac was created beneath the second hole by applying gentle vacuum to the first hole using a small rubber squeeze bulb. The vacuum caused the chorioallantoic membrane (CAM) to separate from the shell.
For inducing angiogenesis, sterile filter disks were saturated with bFGF (1 μg/ml) (Life Technologies, Gaithersburg, Md.) or other pro-angiogenesis factors and control disks were saturated with PBS without Calcium and Magnesium. Control disks were saturated with PBS without Calcium and Magnesium.
After 24-48 hr, 10-25 ul of test agent was injected intravenously or added topically into the CAM membrane. Eight-Ten eggs/treatment group were used.
(§2) The number of vessel branch points contained in a circular region equal to the area of a filter disk was counted for each section. Percent inhibition data are expressed as the quotient of the experimental value minus the negative control value divided by the difference between the positive control value and the negative control value. One image was counted in each CAM preparation, and findings from eight CAM preparations were analyzed for each treatment condition. In addition, each experiment was performed three times. The resulting angiogenesis index is the mean ±SEM (Standard Error of Measurement) of new branch points in each set of treatment. Statistical analysis of blood vessel branching patterns are performed by 1-way analysis of variance (ANOVA) comparing experimental with corresponding control groups. Statistical significance differences are assessed at P value of <0.05.
The CAM model protocol was modified to include stimulus with bFGF. The effect of injected OT 551 was assayed.
TP-H was applied to the CAM model study to determine its respective anti-angiogenesis effects according to the materials and methods provided in Example 1. Basic Fibroblast Growth Factor (bFGF) was used to induce angiogenesis in the CAM model.
Compounds were introduced via injection to the CAM model study to determine its respective anti-angiogenesis effects according to the materials and methods provided in Example 1. bFGF was used to induce angiogenesis in the CAM model.

The test system of a further experiment is mouse V79 cells. Conditions: cited from earlier work.
Experiment [5] has as its system selenite induced cataract. Kind of experiment: Selenite induced cataract in mice. The conditions noted are these: mouse, in vivo. From the text:
In addition, as mentioned above, there is no precedent for the prevention of growth factor-induced angiogenesis by either TEMPOL or hydroxylamines.

The subject of experiment [6] is H2O2-induced angiogenesis in the CAM model. The experiment in a line: H2O2-induced angiogenesis in the CAM model. It counts as in vivo, chicken. The conditions noted are these: for Branch pts ± SEM: H2O2 88 μM, 30 ng. As to the method:
as §1
A pro-angiogenic agent was added to induce new blood vessel branches on the CAM of 10-day old embryos. Filter disks of #1 filter paper (Whatman International, United Kingdom) were punched using a small puncher and were soaked in 3 mg/mL cortisone acetate (Sigma, St. Louis, Mo.) in a solution (95% ethanol and water). The disks were subsequently air dried under sterile conditions. The disks were then suspended in PBS (Phosphate Buffered Saline) and placed on growing CAMs. Filters treated with TP-H (TEMPOL-H) or TEMPOL and/or H2O2 or TP-H and/or bFGF or VEGF were placed on the first day of the 3-day incubation.
as §2
TP-H (TEMPOL-H, the hydroxylamine reduced form of the nitroxide 4-hydroxy-2,2,6,6-tetramethylpiperidin-1-yloxy) or TEMPOL (4-hydroxy-2,2,6,6-tetramethylpiperidine-N-oxyl radical) was applied to the CAM model study to determine its respective anti-angiogenesis effects according to the materials and methods provided in Example 1. H2O2 was used to induce angiogensis in the CAM model.

The subject of another experiment is lens endothelial cells. Conditions: in vitro; cited from earlier work.
Setting [7] is: Bevacizumab 1 ng/cup + Comp. 4 1 uM.
Setting [8] is: Bevacizumab 1 ng/cup + Comp. 4 10 uM.
[9] abbreviates: Ranibizumab 1 ng/cup + Comp. 4 1 uM.
Where [10] appears, read: Ranibizumab 1 ng/cup + Comp. 4 10 uM.

Where two headings read alike, the source gives them in different places.

For the compound `CC1(C)CC(Oc2nsnc2N2CCOCC2)CC(C)(C)N1O.Cl` [Compound 4, 4-(4-(2,2,6,6-tetramethylpiperidin-1-hydroxyl-4-yloxy)-1,2,5-thiazol-3-yl)morpholine hydrogen chloride], the “Clot Strength - MA” value was 9.6 ± 2.3 mm in experiment [1] (setting [7]), 5.0 ± 1.2 mm in experiment [1] (setting [8]), 6.7 ± 1.5 mm in experiment [1] (setting [9]) and 2.7 ± 0.7 mm in experiment [1] (setting [10]). Moreover, the “Time to Clot Initiation R” value in experiment [1] (setting [7]) stood at 14.3 ± 2.2 min; in [1] (setting [8]), 21.3 ± 4.2 min; in experiment [1] (setting [9]) it was 16.8 ± 1.7 min; in experiment [1] (setting [10]), 23.3 ± 2.3 min. Besides, the “effect on clot formation with Bevacizumab/Ranibizumab” value in experiment [1] (compound 4 at 1 ug and 10 ug) is listed as “delayed the clot formation”. Moreover, the “underlying mechanism (cell cycle arrest, apoptosis markers)” value in experiment [2] is “increased expression of p21/WAF1 and caspase-3 activation”. Besides, the “reversal of drug resistance” value in experiment [2] (combined with doxorubicin, osteosarcoma, breast cancer, neuroblastoma) is recorded as “strong ability to reverse drug resistance”. In addition, the “killing of cells, compound alone” value in experiment [2] (doxorubicin-sensitive and doxorubicin-resistant cells) was “enhanced the killing of both doxorubicin-sensitive (P<0.001) and doxorubicin-resistant cells”. Moreover, the inhibition at 10 µM with TNFα (compound 10 uM, 5 ng/mL LPS, read-out: Mean Percent Inhibition of TNF-alpha using 5 ng/mL LPS) amounted to 61 ± 10%. Besides, the IC50 in the experiment on TNFα (read-out: TNFalpha IC50) came to 6.7 µM. Besides, the “Mean OD (×10^−3), MTT viability” value in experiment [3] (Dox. 10^−6 M (+)) is listed as 88.00 ×10^−3; in experiment [3] (absence of Dox. (−)), 468.50 ×10^−3. Also, in the experiment on Lipid peroxidation (1 uM), the “% Lipid Peroxidation inhibition (at 1 uM)” value came out at 87.0%. In the experiment on Lipid peroxidation (10 uM), the “Lipid Peroxidation Inhibition, % Inhibition” value was 91.4%. In addition, the inhibition in vivo at 0.03 mg in [4] (Gallus gallus, read-out: % Inhibition ± SEM) is 92.8 ± 16.5%. Besides, in experiment [4], the “Branch pts ± SEM” value is 72.3 ± 12.2.
For the compound `CC1(C)CC(O)CC(C)(C)N1[O]` [TEMPOL, 4-hydroxy-2,2,6,6-tetramethylpiperidine-N-oxyl radical, reference compound], in the experiment on mouse V79 cells, the “radioprotection of mouse V79 cells” value is “concentration dependent”. Also, the “prevention of selenite induced cataract” value in experiment [5] is on record as “not effective”. Further, the “Branch pts ± SEM” value in experiment [6] (100 μg) is recorded as 152.2 ± 18.8; in experiment [6] (200 μg), 151.8 ± 12.5; in [6] (400 μg), 150.0 ± 7.7; in experiment [6] (800 μg), 122.8 ± 3.0. Further, in experiment [6] (in vivo), the “inhibition of angiogenesis induced by super-maximal concentrations of H2O2” value is given as “effectively inhibited”. In addition, in the experiment with lens endothelial cells, the “prevention of X-ray radiation damage to lens endothelial cells” value is reported as “prevented X-ray radiation damage”.

What is called IC50 is the point on the concentration scale where inhibition reaches its midpoint.
